Data: ChEMBL document CHEMBL1201862, “PubChem BioAssay data set” (2004)
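In this assay, cells in 96-well plates receive the compound at five concentrations for 48 hours. Endpoints are linearly interpolated between the surrounding concentrations. GI50 = concentration required for 50% inhibition of growth.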 Active and inactive are the calls of the source. Rule as the data show it: active = GI50 up to about 1.1 µM and inactive = higher.

Legend:
Assay in all cases: NCI tumour cell line growth inhibition, 48 h
786-0 = test system: 786-0
RPMI-8226 = test system: RPMI-8226
NCI-H460 = test system: NCI-H460
COLO 205 = test system: COLO 205
OVCAR-5 = test system: OVCAR-5
TK-10 = test system: TK-10
KM12 = test system: KM12
HL-60 = test system: HL-60
SW-620 = test system: SW-620
U-251 = test system: U-251
NCI-H23 = test system: NCI-H23
SF-295 = test system: SF-295
HT-29 = test system: HT-29
NCI-H522 = test system: NCI-H522
SN12C = test system: SN12C
SNB-19 = test system: SNB-19
RXF 393 = test system: RXF 393

Measured: GI50

O=C1CCCC/C1=C/C=C/c1ccccc1
inactive: 786-0 > 100 µM | RPMI-8226 32.5 µM | NCI-H460 > 100 µM | COLO 205 > 100 µM | OVCAR-5 > 100 µM | TK-10 > 100 µM | KM12 42.2 µM | HL-60 25.9 µM | SW-620 41.6 µM | U-251 83 µM | NCI-H23 51.4 µM | SF-295 48.6 µM | HT-29 49.3 µM | NCI-H522 30.7 µM | SN12C > 100 µM | SNB-19 > 100 µM | RXF 393 47.4 µM

CCOC(=O)c1ccc(/N=C\c2ccc(N(CCC#N)CCC#N)cc2)cc1
inactive: 786-0 99.5 µM | RPMI-8226 65.6 µM | NCI-H460 > 100 µM | COLO 205 53.7 µM | OVCAR-5 > 100 µM | TK-10 39.6 µM | HL-60 80.9 µM | SW-620 81.5 µM | NCI-H23 > 100 µM | SF-295 > 100 µM | HT-29 > 100 µM | NCI-H522 49.5 µM | SN12C > 100 µM | SNB-19 > 100 µM | RXF 393 > 100 µM

C#CC[N+](C)(CC#C)CC#C
inactive: 786-0 > 100 µM | RPMI-8226 > 100 µM | NCI-H460 > 100 µM | COLO 205 > 100 µM | OVCAR-5 > 100 µM | TK-10 > 100 µM | KM12 > 100 µM | HL-60 > 100 µM | SW-620 > 100 µM | NCI-H23 > 100 µM | SF-295 > 100 µM | HT-29 > 100 µM | NCI-H522 > 100 µM | SN12C > 100 µM | SNB-19 > 100 µM | RXF 393 > 100 µM

COc1ccc(/C=C/c2nnc(S)[nH]2)cc1
inactive: 786-0 > 100 µM | RPMI-8226 > 100 µM | NCI-H460 > 100 µM | OVCAR-5 > 100 µM | TK-10 > 100 µM | HL-60 > 100 µM | SW-620 > 100 µM | U-251 > 100 µM | NCI-H23 > 100 µM | SF-295 > 100 µM | HT-29 > 100 µM | NCI-H522 > 100 µM | SN12C > 100 µM | SNB-19 > 100 µM | RXF 393 > 100 µM

CC(=O)OC1C=CC2CCN3C(=O)c4cc5c(cc4[C@H]1C23)OCO5 (some centres undefined)
inactive: 786-0 > 100 µM | RPMI-8226 > 100 µM | NCI-H460 > 100 µM | COLO 205 > 100 µM | TK-10 > 100 µM | KM12 > 100 µM | HL-60 > 100 µM | SW-620 > 100 µM | U-251 > 100 µM | NCI-H23 > 100 µM | SF-295 > 100 µM | HT-29 > 100 µM | NCI-H522 > 100 µM | SN12C > 100 µM | SNB-19 > 100 µM | RXF 393 > 100 µM
